In patent US9987376B2, “Delivery system for delivery of a substance into the oral cavity” (NORINVENT AB, priority 2008, dated 2018):
Read-outs that look alike come from different tables or passages of the source. Values belong to the compound of their own block, whether it stands above or below them.

Tests used:
[1] = system: headache caused by the red wine; assay: relief of red wine headache in voluntary humans; type: in vivo, human; conditions: Group A: 40 mg (1/10 of normal oral dose) bonded to a carrier according to the invention
Description: A further test was performed on voluntary humans. The test was performed on a group of 19 persons. Each test person was given 2 L of red wine without gender discrimination. The wine was consumed during 3 hours the evening before testing. The following morning the individuals were divided into two groups A and B, respectively. Group A received 40 mg ( 1/10 of a normal orally administered dose) of ibumetine bonded to a carrier according to the invention. Group B where given an empty membrane with only sugar chains and no active substance. Group A felt a total relief of the headache caused by the red wine within 5 minutes, whereas group B felt no relief at all from the bare membrane with sugar chains. Group B where therefore treated with 400 mg ibumetine by conventional oral delivery. Various degrees of relief were noted after 45 min-1 h. The test procedure is diagrammatically illustrated in FIG. 3.

[2] = rat, in vivo
Description: White/white laboratory standard rats were used for the tests. In test group A, the rats were given scopolamine.
The rats were terminated by carbon-dioxide 4 h after centrifugation and the intestinal organs were examined. The presence of scopolamine or citalopram in the rat bodies was detected by spectrophotometrics and digital imaging as described in Goncalves, Diaz and Moses et al.

[3] = system: motion sickness in White/white laboratory standard rats; assay: rat centrifuge motion sickness test; type: in vivo
Description: In test group A, the rats were given scopolamine.
Group B served as a control and was treated with uncoupled scopolamine and a starch matrix carrier without sugar chains.
The membrane size was 1×1 mm made out of starch. To this the labelled sugar chains were coupled and one membrane was put under the upper lip of each rat.
Three equally calibrated centrifuges were used in the test, one for each group of rats A, B, C. Each centrifuge was placed in a box having an entrance/exit through which the rats could move freely between their cage and the centrifuge box. The rats were first allowed to find their way into the centrifuge box before they were lifted up and placed in the centrifuge.
The rats were subsequently spun in the centrifuges at 3 G during 30 seconds.
After centrifugation, the ability of each group A, B, C to localize the exit in the centrifuge box and to return to the cage as well as general steadiness were observed.

[4] = White/white laboratory standard, 4 h

SMILES: CC(C)Cc1ccc(C(C)C(=O)O)cc1 (stereo not shown) [ibumetine]
time to total relief of the headache [1]: ≤ 5 min

active substance in kidney or liver [2, 4]: over 75%
active substance in the brain [2, 4]: less than 4%
active substance in the brain ([2]; 4 h): 99%
active substance in the kidneys ([2]; 4 h): less than 0.1%
active substance in the liver ([2]; 4 h): less than 0.2%
SMILES: CN(C)CCCC1(c2ccc(F)cc2)OCc2cc(C#N)ccc21 (stereo not shown) [citalopram]

SMILES: CN1[C@@H]2C[C@@H](OC(=O)[C@H](CO)c3ccccc3)C[C@H]1[C@@H]1O[C@@H]12 [scopolamine]
active substance in kidney or liver ([2]; White/white laboratory standard): over 75%
active substance in the kidneys [2]: less than 0.1%
active substance in the liver [2]: less than 0.2%
behaviour / signs of motion sickness after centrifugation ([3]; Group A: 1/10 of a normal dose bound by sugar chains to starch matrix, under upper lip, 3 G, 30 seconds): no change in normal behaviour
ability to localize the exit in the centrifuge box ([3]; Group A: 1/10 of a normal dose bound by sugar chains to starch matrix, 3 G, 30 seconds): managed to directly locate the exit
behaviour / signs of motion sickness after centrifugation ([3]; Group B: same amount of uncoupled substance with starch matrix without sugar chains, 3 G, 30 seconds): clear signs of motion sickness
ability to localize the exit in the centrifuge box ([3]; Group B: uncoupled substance, starch matrix without sugar chains, test period of 1 h): could not find the exit
